Test results reported in article PMC12948427 (The Journal of Clinical Investigation, 2025).
pEC50, pIC50, pKd: −log10 of the molar value. Values joined by “and” are separate entries in the source; they are usually repeats but may differ in a detail not shown here. Equal entries are not always repeated. Where two headings read alike, the source gives them in different places.

Experiments:
HCoV-HKU1 VLP = format: cell-based
SARS-CoV-2 Omicron BA.5 [1] = format: in vivo, K18-hACE2 C57BL/6 mice; settings: mouse, in vivo
hHgs 1-390 protein = hHgs 1-390 protein (Homo sapiens, UniProt O14964); test: biochemical
MHV [2] = test: microbe, parasite or virus in culture; format: cell-based, mouse hepatitis virus (MHV); settings: Murine coronavirus, 24 h, read-out: EC50 (IFA)
MERS VLP = format: cell-based, MERS-CoV
MHV [3] = test: microbe, parasite or virus in culture; settings: Murine coronavirus, 24 h, read-out: EC50, rescue of coronavirus-induced cytopathic effects
HCoV-229E [4] = test system: HCoV-229E; parameters: species or system K18-hACE2 C57BL/6 mice; settings: mouse, in vivo
SARS-CoV-2 Omicron BA.5 [5] = test: microbe, parasite or virus in culture; format: cell-based; settings: Severe acute respiratory syndrome coronavirus 2, 24 h, read-out: EC50 (IFA)
SARS-CoV-2 VLP = format: cell-based
[6] = target: hHGS 1-390-6 × HIS protein (Homo sapiens, UniProt O14964); test: biochemical
WIV1 = test: microbe, parasite or virus in culture; format: cell-based, bat coronavirus WIV1; settings: Bat coronavirus, 48 h, read-out: EC50 (IFA)
[7] = format: cell-based
HCoV-229E [8] = test: Infection of ALI-cultured primary HBEs, HCoV-229E; format: cell-based
Experimental: Primary HBEs at passage 3 or earlier were seeded at a density of 40,000 cells per well in Transwell inserts (Costar 6.5 mm Transwell, 0.4 μm Pore Polyester Membrane Inserts, catalog 3470) for expansion culture. The cells were cultured in expansion medium (PneumaCult-Ex Plus Medium, catalog 05040) until tight junctions were formed. Once tight junctions were established, the expansion medium in the upper chamber was discarded, and the medium in the lower chamber was replaced with ALI differentiation medium (PneumaCult-ALI Medium, catalog 05001). Cells were maintained under ALI conditions, with the medium being changed every 2 days. The differentiation process was carried out for 21 days, during which cell morphology and differentiation status were monitored. The fully differentiated cells were infected with HCoV-OC43, HCoV-229E, HCoV-NL63, or SARS-CoV-2 (MOI = 1), and fresh medium was changed 1 hour postinfection. Specific peptide was added into the medium every 24 hours. At 96 hours postinfection, cells in Transwell inserts were washed with 140 μL PBS per insert, and the wash fluid was collected to extract virus RNA followed by RT-qPCR. […] The fluorescence was measured using ImageJ (NIH).

MHV [9] = test system: MHV
MHV [10] = test system: MHV; parameters: species or system C57BL/6 mice; settings: mouse, in vivo
HCoV-229E [11] = test: In vitro antiviral activity assay (IFA), HCoV-229E; format: cell-based; settings: for Inhibition rate (IFA): Fig 5F, MOI 0.1, 48 h
SARS-CoV-2 M protein = format: cell-based

Sequence of hHGS 1-390-6 × HIS protein (O14964 1-390): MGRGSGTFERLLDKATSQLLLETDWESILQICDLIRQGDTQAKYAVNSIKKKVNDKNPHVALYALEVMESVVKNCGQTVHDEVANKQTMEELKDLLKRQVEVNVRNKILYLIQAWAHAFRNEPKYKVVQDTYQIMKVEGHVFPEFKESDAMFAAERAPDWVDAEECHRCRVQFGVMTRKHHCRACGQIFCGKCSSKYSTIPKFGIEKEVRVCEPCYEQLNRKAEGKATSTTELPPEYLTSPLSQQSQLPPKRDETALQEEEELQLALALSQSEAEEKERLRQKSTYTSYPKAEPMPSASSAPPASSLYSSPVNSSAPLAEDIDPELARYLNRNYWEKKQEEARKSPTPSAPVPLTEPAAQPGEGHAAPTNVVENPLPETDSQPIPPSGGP
Sequence of hHgs 1-390 protein (O14964 1-390): as above

## CCCC(=O)OC[C@@H](OC(=O)CCC)[C@@H](OC(=O)CCC)[C@H](Cn1c2nc(=O)[nH]c(=O)c-2nc2cc(C)c(C)cc21)OC(=O)CCC [RTB, riboflavin tetrabutyrate]
HCoV-HKU1 VLP
  VLPs' release: concentration-dependent inhibition
SARS-CoV-2 Omicron BA.5 [1]
  Survival curves: per-mouse event code: 0
  body weight loss: markedly reduced body weight loss
  lung inflammation: alleviated lung inflammation
  pulmonary viral titers: substantially lowered pulmonary viral titers
  survival: significantly improved survival
hHgs 1-390 protein
  pIC50: 6.24
MHV [2]
  pEC50: 4.95
MERS VLP
  VLPs' release: concentration-dependent inhibition
MHV [3]
  pEC50: 5.46
Vero E6 cells; concentration 100
  cell viability, Figure S9M: 90.9619 and 91.4921 and 91.5678
Vero E6 cells; concentration 200
  cell viability, Figure S9M: 83.3123 and 82.1005 and 89.9015
Vero E6 cells; concentration 500
  cell viability, Figure S9M: 91.4921 and 86.1146 and 87.6294
Vero E6 cells; concentration 1000
  cell viability, Figure S9M: 92.9311 and 88.614 and 83.4638
Vero E6 cells; concentration 2000
  cell viability, Figure S9M: 97.5511 and 94.5216 and 90.4317
Vero E6 cells; concentration 5000
  cell viability, Figure S9M: 93.6885 and 92.1737 and 93.0068
Vero E6 cells; concentration 10000
  cell viability, Figure S9M: 96.718 and 96.0363 and 91.6435
Vero E6 cells; concentration 20000
  cell viability, Figure S9M: 91.6435 and 99.3688 and 98.3085
HCoV-229E [4]
  pulmonary viral titers: lowered pulmonary viral titers
  viral gRNA: significantly reduced viral gRNA
  virus-induced lung injury: markedly attenuated virus-induced lung injury
SARS-CoV-2 Omicron BA.5 [5]
  pEC50: 5.39
SARS-CoV-2 VLP
  VLPs' release: concentration-dependent inhibition
[6]
  pKd: 5.32
WIV1
  pEC50: 5.45
[7]; 1h, concentration 10000 (unit not given)
  Inhibition, time-of-drug-addition (Figures S12A, S12B): 18.697 and 20.3699 and 24.961
[7]; 1h, concentration 25000 (unit not given)
  Inhibition, time-of-drug-addition (Figures S12A, S12B): 81.3431 and 85.284 and 85.9984
[7]; 3h, concentration 3000 (unit not given)
  Inhibition, time-of-drug-addition (Figures S12A, S12B): 10.0367 and 8.463 and 5.695
[7]; 3h, concentration 10000 (unit not given)
  Inhibition, time-of-drug-addition (Figures S12A, S12B): 25.0374 and 23.4524 and 23.7085
[7]; 3h, concentration 25000 (unit not given)
  Inhibition, time-of-drug-addition (Figures S12A, S12B): 87.678 and 84.0771 and 84.6309
[7]; 5h, concentration 10000 (unit not given)
  Inhibition, time-of-drug-addition (Figures S12A, S12B): 24.2683 and 28.1902 and 26.5679
[7]; 5h, concentration 25000 (unit not given)
  Inhibition, time-of-drug-addition (Figures S12A, S12B): 80.9022 and 85.7938 and 85.9604
[7]; 7h, concentration 3000 (unit not given)
  Inhibition, time-of-drug-addition (Figures S12A, S12B): 11.352 and 13.6306 and 7.232
[7]; 7h, concentration 10000 (unit not given)
  Inhibition, time-of-drug-addition (Figures S12A, S12B): 27.8545 and 21.5848 and 25.4245
[7]; 7h, concentration 25000 (unit not given)
  Inhibition, time-of-drug-addition (Figures S12A, S12B): 81.9707 and 81.2844 and 80.2961
HCoV-229E [8]; Fig 5H, HCoV-229E MOI = 1, ALI-cultured HBEs, 96 h, RTB dose 5 (unit not given)
  extracellular viral gRNA levels (RT-qPCR): 7 and 6 and 8
HCoV-229E [8]; HCoV-229E
  inhibition of infection in ALI cultures of HBEs: significant, dose-dependent inhibition
MHV [9]; concentration 10
  viability of infected cells (rescue of cytopathic effect), Figures S9G-L: 46.6398 and 47.8192 and 45.9379
MHV [9]; concentration 30
  viability of infected cells (rescue of cytopathic effect), Figures S9G-L: 48.4931 and 47.9876 and 45.7132
MHV [9]; concentration 100
  viability of infected cells (rescue of cytopathic effect), Figures S9G-L: 49.4197 and 48.1842 and 47.2295
MHV [9]; concentration 300
  viability of infected cells (rescue of cytopathic effect), Figures S9G-L: 52.6488 and 47.5665 and 45.7132
MHV [9]; concentration 1000
  viability of infected cells (rescue of cytopathic effect), Figures S9G-L: 53.6878 and 50.8517 and 50.0094
MHV [9]; concentration 3000
  viability of infected cells (rescue of cytopathic effect), Figures S9G-L: 66.4358 and 61.915 and 62.9259
MHV [9]; concentration 10000
  viability of infected cells (rescue of cytopathic effect), Figures S9G-L: 81.009 and 81.0651 and 81.6829
MHV [9]; concentration 25000
  viability of infected cells (rescue of cytopathic effect), Figures S9G-L: 85.0805 and 84.4908 and 83.1711
MHV [10]
  pulmonary viral titers: lowered pulmonary viral titers
  viral gRNA: significantly reduced viral gRNA
  virus-induced lung injury: markedly attenuated virus-induced lung injury
HCoV-229E [11]; conc 10 (unit not given)
  Inhibition rate (IFA): 1.96% and 3.23% and 5.67%
HCoV-229E [11]; conc 30 (unit not given)
  Inhibition rate (IFA): 3.76% and 4.49% and 3.62%
HCoV-229E [11]; conc 100 (unit not given)
  Inhibition rate (IFA): 5.42% and 6.32% and 1.81%
HCoV-229E [11]; conc 200 (unit not given)
  Inhibition rate (IFA): 10.91% and 9.21% and 8.05%
HCoV-229E [11]; conc 1000 (unit not given)
  Inhibition rate (IFA): 20.9% and 20.96% and 21.52%
HCoV-229E [11]; conc 5000 (unit not given)
  Inhibition rate (IFA): 53.61% and 55.59% and 56.09%
HCoV-229E [11]; conc 10000 (unit not given)
  Inhibition rate (IFA): 87.09% and 86.7% and 87.17%
HCoV-229E [11]; conc 20000 (unit not given)
  Inhibition rate (IFA): 98.7% and 98.72% and 98.89%
HCoV-229E [11]; Human coronavirus 229E, 48 h, read-out: EC50 (IFA)
  pEC50: 5.21
SARS-CoV-2 M protein
  Colocalization of M with Sec61b (Manders' coefficient): 0.92 and 0.994 and 0.992
  M protein localization: induced M retention in the ER
  Sec61b colocalization coefficient (Figure 7I): 0.867 and 0.94 and 0.917
